This passage reports IC50 results from BindingDB's records for doi:10.1021/jm00076a015 (University of Pennsylvania, 1994).

The experiment deals with T1, Ribonucleoside-diphosphate reductase large subunit (Mus musculus, UniProt P07742).
T1 sequence (P07742 whole entry): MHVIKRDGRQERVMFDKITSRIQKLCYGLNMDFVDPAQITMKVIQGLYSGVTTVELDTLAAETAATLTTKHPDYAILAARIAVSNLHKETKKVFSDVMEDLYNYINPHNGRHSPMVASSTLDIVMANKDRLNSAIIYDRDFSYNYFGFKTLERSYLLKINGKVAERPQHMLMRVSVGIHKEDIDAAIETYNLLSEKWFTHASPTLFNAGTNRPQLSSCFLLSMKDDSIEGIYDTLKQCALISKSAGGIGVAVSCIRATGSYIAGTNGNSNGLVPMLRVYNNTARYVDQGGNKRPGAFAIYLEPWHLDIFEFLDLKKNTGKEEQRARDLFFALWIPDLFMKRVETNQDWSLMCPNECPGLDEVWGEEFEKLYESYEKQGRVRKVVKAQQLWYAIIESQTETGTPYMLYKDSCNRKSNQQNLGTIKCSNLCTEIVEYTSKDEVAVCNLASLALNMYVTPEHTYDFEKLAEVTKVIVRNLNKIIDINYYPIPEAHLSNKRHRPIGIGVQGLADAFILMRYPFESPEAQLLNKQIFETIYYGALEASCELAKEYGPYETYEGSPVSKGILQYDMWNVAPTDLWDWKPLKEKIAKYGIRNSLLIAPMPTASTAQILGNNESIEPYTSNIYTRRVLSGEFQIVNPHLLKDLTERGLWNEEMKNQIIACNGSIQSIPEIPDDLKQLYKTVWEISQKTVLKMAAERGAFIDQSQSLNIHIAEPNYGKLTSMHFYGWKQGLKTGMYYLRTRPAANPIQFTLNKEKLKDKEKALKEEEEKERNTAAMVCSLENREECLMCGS
In words: ChEBML_195421.

Source text: Inhibitory activity of compound against mammalian ribonucleotide reductase; Range is 40-42

A word on the IC50: it is the concentration at which inhibition is half-maximal. Low values mean greater potency, high ones weaker potency. On to Ac-AGAFTFNEDF-OH, for which inhibition was half-maximal at 41 µM (IC50).
